Reference: US11806332B2, “Compositions and methods for inhibition of SARS-CoV-2 viral infections” (priority 2020, dated 2023)
Read-outs that look alike come from different tables or passages of the source.

Experiments:
[1] = patients, state Cmax; cited from earlier work
[2] = tested on: SARS-CoV-2; test: Live virus-based microneutralization (MN) assay, SARS-CoV-2-induced CPE in Vero E6 cells; format: cell-based; set-up: key to SARS-CoV-2 induced CPE in Vero E6 cells: Cytotoxicity; ND: Both cytotoxicity and CPE are not detected.; SARS-CoV-2 induced CPE; conditions: for SARS-CoV-2 induced CPE in Vero E6 cells: Repeat 1 and 2
[3] = mice, dose as high as 300 mg/kg/day; cited from earlier work
[4] = tested on: SARS-CoV-2; format: cell-based; set-up: key: Cytotoxicity; ND: Both cytotoxicity and CPE are not detected.; SARS-CoV-2 induced CPE; conditions: Repeat 1 and 2
[5] = molecular target: M^Pro (Severe acute respiratory syndrome coronavirus 2, UniProt P0DTD1); format: biochemical

CC(C)COCC(CN(Cc1ccccc1)c1ccccc1)N1CCCC1 (stereo not drawn) [Bepridil]
Cmax [1]: 3.72 µM | SARS-CoV-2 induced CPE in Vero E6 cells ([2]; bepridil 0.16 μM): CPE | SARS-CoV-2 induced CPE in Vero E6 cells ([2]; bepridil 0.31 μM): CPE | SARS-CoV-2 induced CPE in Vero E6 cells ([2]; bepridil 0.62 μM): CPE | SARS-CoV-2 induced CPE in Vero E6 cells ([2]; bepridil 1.25 μM): CPE | SARS-CoV-2 induced CPE in Vero E6 cells ([2]; bepridil 2.5 μM): CPE | SARS-CoV-2 induced CPE in Vero E6 cells ([2]; bepridil 50 μM): C | SARS-CoV-2 induced CPE in Vero E6 cells ([2]; bepridil 100 μM): C | SARS-CoV-2 induced CPE in Vero E6 cells ([2]; bepridil 200 μM): C^a and C | mating behavior and reproductive performance [3]: did not show alteration in mating behavior and reproductive performance | SARS-CoV-2 induced CPE in ACE2-expressing A549 cells ([4]; bepridil 1.56 μM): CPE | SARS-CoV-2 induced CPE in ACE2-expressing A549 cells ([4]; bepridil 3.12 μM): CPE

CC(C)(C)c1ccc(C(=O)CCCN2CCC(OC(c3ccccc3)c3ccccc3)CC2)cc1 [Ebastine]
Cytopathogenic effect (CPE) [2]: observed

Cc1cccc(C)c1OCC(=O)N[C@@H](Cc1ccccc1)[C@@H](O)C[C@H](Cc1ccccc1)NC(=O)[C@H](C(C)C)N1CCCNC1=O [Lopinavir]
IC50 ([5]; 50 nM M^Pro, 10 μM Sub3, mean ± SE, triplicate): 486 ± 2 µM | Hill Slope ([5]; Hill coefficient of IC50 curve, four-parameter fit): 29.9 ± 2.4 | Hill Slope ([5]; Hill coefficient of IC50 curve, four-parameter fit, listed as lopinavir): lowest Hill coefficients

O=c1[nH]c2ccccc2n1C1CCN(CCCC(c2ccc(F)cc2)c2ccc(F)cc2)CC1 [Pimozide]
Cytopathogenic effect (CPE) ([2]; Vero E6 cells, all tested concentrations, 0.16 to 200 μM): observed

CCOC(=O)/C=C/[C@H](C[C@@H]1CCNC1=O)NC(=O)[C@@H](CC(=O)[C@@H](NC(=O)c1cc(C)on1)C(C)C)Cc1ccc(F)cc1 [Rupintrivir]
Hill Slope [5]: 1.4 ± 0.2
